Data as given in ChEMBL document CHEMBL1148682, “Cyclopentane-based human NK1 antagonists. Part 2: development of potent, orally active, water-soluble derivatives” (Bioorg Med Chem Lett, 2006).

assay: Dissociation constant, pKa of the compound; type: physicochemical

pKa	Compound
6.6	NC(=O)CNC1CCC(OCc2cc(C(F)(F)F)cc(C(F)(F)F)c2)C1c1ccccc1 (configuration not stated)
6.2	C[C@@H](O[C@H]1CC[C@@H](N(C)Cc2c[nH]c(O)n2)[C@@H]1c1ccc(F)cc1)c1cc(C(F)(F)F)cc(C(F)(F)F)c1
5.3	C[C@@H](O[C@H]1CC[C@@H](N(C)CC(N)=O)[C@@H]1c1ccc(F)cc1)c1cc(C(F)(F)F)cc(C(F)(F)F)c1
5.8	CN(CC(N)=O)C1CCC(OCc2cc(C(F)(F)F)cc(C(F)(F)F)c2)C1c1ccccc1 (configuration not stated)
4.7	C[C@@H](O[C@H]1CC[C@@H](N(C)Cc2n[nH]c(O)n2)[C@@H]1c1ccc(F)cc1)c1cc(C(F)(F)F)cc(C(F)(F)F)c1
5.3	CNC(=O)CN(C)[C@@H]1CC[C@H](O[C@H](C)c2cc(C(F)(F)F)cc(C(F)(F)F)c2)[C@H]1c1ccc(F)cc1
< 3.5	C[C@@H](O[C@H]1OCCN(Cc2n[nH]c(=O)[nH]2)[C@H]1c1ccc(F)cc1)c1cc(C(F)(F)F)cc(C(F)(F)F)c1 [APREPITANT]
